Measurements published in the NIST ThermoML archive (doi:10.1021/acs.jced.8b01120).
Where “and” joins values, the source holds several entries; their conditions need not be identical. Equal values may be shown once.

Columns and labels:
[1] = 100 kPa, Liquid; for speed of sound: Single path-length method; for mass density: Vibrating tube method
[2] = xn = mol fraction of the nth substance listed; settings: 100 kPa, Liquid; for speed of sound: Single path-length method; for mass density: Vibrating tube method

CCCCOC(C)=O [butyl ethanoate]
[1]
Settings	mass density [kg/m3]	speed of sound [m/s]
293.15 K	881.54	1211.6
298.15 K	876.399	1191.5
303.15 K	871.235	1172.4
308.15 K	866.05	1153.9
313.15 K	860.84	1131.5

CCCCOC(C)=O [butyl ethanoate] + CCCCN(CCCC)CCCC
[2], x2 = 0
Settings	mass density [kg/m3]	speed of sound [m/s]
293.15 K	881.54	1211.6
298.15 K	876.399	1191.5
303.15 K	871.235	1172.4
308.15 K	866.05	1153.9
313.15 K	860.84	1131.5

CCOC(C)=O [ethyl acetate]
[1]
Settings	mass density [kg/m3]	speed of sound [m/s]
293.15 K	900.882	1164.3
298.15 K	894.79	1142.9
303.15 K	888.656	1119.4
308.15 K	882.475	1097.2
313.15 K	876.247	1075

CCOC(C)=O [ethyl acetate] + CCCCN(CCCC)CCCC
[2], x2 = 0
Settings	mass density [kg/m3]	speed of sound [m/s]
293.15 K	900.882	1164.3
298.15 K	894.79	1142.9
303.15 K	888.656	1119.4
308.15 K	882.475	1097.2
313.15 K	876.247	1075

COC(C)=O [methyl ethanoate]
[1]
Settings	mass density [kg/m3]	speed of sound [m/s]
293.15 K	935.01	1180.4
298.15 K	928.458	1157.5
303.15 K	921.85	1134.9
308.15 K	915.16	1109.2
313.15 K	908.49	1089.6

COC(C)=O [methyl ethanoate] + CCCCN(CCCC)CCCC
[2], x2 = 0
Settings	mass density [kg/m3]	speed of sound [m/s]
293.15 K	935.01	1180.4
298.15 K	928.458	1157.5
303.15 K	921.85	1134.9
308.15 K	915.16	1109.2
313.15 K	908.49	1089.6

CCCCCOC(C)=O [pentyl ethanoate]
[1]
Settings	mass density [kg/m3]	speed of sound [m/s]
293.15 K	876.248	1243
298.15 K	871.32	1220.7
303.15 K	865.782	1196.8
308.15 K	860.581	1174.2
313.15 K	855.357	1152.3

CCCOC(C)=O [propyl ethanoate]
[1]
Settings	mass density [kg/m3]	speed of sound [m/s]
293.15 K	888.964	1190.3
298.15 K	883.369	1164.2
303.15 K	877.422	1145
308.15 K	871.784	1123.7
313.15 K	866.115	1102.3

CCCOC(C)=O [propyl ethanoate] + CCCCN(CCCC)CCCC
[2], x2 = 0
Settings	mass density [kg/m3]	speed of sound [m/s]
293.15 K	888.964	1190.3
298.15 K	883.369	1164.2
303.15 K	877.422	1145
308.15 K	871.784	1123.7
313.15 K	866.115	1102.3

CCCCN(CCCC)CCCC [tributylamine]
[1]
Settings	mass density	speed of sound [m/s]
293.15 K	777.01 kg/m3 and 777.006 kg/m3	1264.2
298.15 K	773.283 kg/m3 and 773.28 kg/m3	1245.2
303.15 K	769.55 kg/m3 and 769.552 kg/m3	1226.2
308.15 K	765.81 kg/m3 and 765.811 kg/m3	1207.4
313.15 K	762.06 kg/m3 and 762.061 kg/m3	1188.8

CCCCN(CCCC)CCCC [tributylamine] + CCCCCOC(C)=O
[2], x1 = 1
Settings	mass density [kg/m3]	speed of sound [m/s]
293.15 K	777.006	1264.2
298.15 K	773.283	1245.2
303.15 K	769.552	1226.2
308.15 K	765.811	1207.4
313.15 K	762.061	1188.8
